Each compound was assayed on NCI-H226 cells (assay: Antiproliferation assay (2D adherent cell viability, CellTiter-Glo)). Conditions: Homo sapiens, 120 h, 5 days treatment, cell viability by CellTiter-Glo.
Type: cell-based
Protocol: The compounds were evaluated in vitro. In addition, an anti-proliferation assay was performed using NCI-H226 cells (FIG. 2).
The mixture of 2-fluoro-5-nitrobenzonitrile (1 g, 6.0 mmol), cyclohexanamine (0.6For 2D adherent cell viability experiment, the cells were seeded at 384-well plate (Corning, no. 3570) at the density of 200 cells/well. The next day, compounds were added using Janus workstation (PerkinElmer). After 5 days treatment, the cell viability was measured by CellTiter-Glo kit (Promega, no. G7570) as the manufacturer recommended.

Point of comparison: C=CC(=O)Nc1ccc(NC2CCC(F)(F)CC2)c(-c2ncccn2)c1 [Compound A-5, N-(4-(4,4-difluorocyclohexylamino)-3-(pyrimidin-2-yl)phenyl)acrylamide], IC50 8 nM. Against it:
- C=CC(=O)Nc1cnc(Oc2ccc(C(F)(F)F)cc2)c(-c2ncccn2)c1 [Compound A-12, N-(5-(pyrimidin-2-yl)-6-(4-(trifluoromethyl)phenoxy)pyridin-3-yl)acrylamide] — 1.8-fold higher, 14 nM
- C=CC(=O)Nc1ccc(Nc2ccc(C(F)(F)F)cc2)c(-c2cccnn2)c1 [Compound A-13, N-(3-(pyridazin-3-yl)-4-(4-(trifluoromethyl)phenylamino)phenyl) acrylamide] — 3.9-fold higher, 31 nM
- C=CC(=O)Nc1ccc(Nc2ccc(C(F)(F)F)cc2)c(-c2cc[nH]c(=O)c2)c1 [Compound A-14, N-(3-(2-oxo-1,2-dihydropyridin-4-yl)-4-(4-(trifluoromethyl)phenylamino)phenyl)acrylamide] — 140-fold higher, 1100 nM
- C=CC(=O)Nc1ccc(Nc2ccc(C(F)(F)F)cc2)c(-c2nccc(N3CCC(O)C3)n2)c1 (stereo not shown) [Compound A-7, N-(3-(4-(3-hydroxypyrrolidin-1-yl)pyrimidin-2-yl)-4-(4-(trifluoromethyl)phenylamino)phenyl)acrylamide] — 2.1-fold higher, 17 nM
- C=CC(=O)Nc1ccc(Nc2ccc(C(F)(F)F)cc2)c(-c2nccc(OCCO)n2)c1 [Compound A-11, N-(3-(4-(2-hydroxyethoxy)pyrimidin-2-yl)-4-(4-(trifluoromethyl)phenylamino)phenyl)acrylamide] — 5-fold higher, 40 nM
- C=CC(=O)Nc1ccc(Nc2ccc(C(F)(F)F)cc2)c(-c2ncccn2)c1 [Compound A-21, N-(3-(pyrimidin-2-yl)-4-(4-(trifluoromethyl)phenylamino)phenyl) Acrylamide] — 2-fold lower, 4 nM

Reference: patent US20240124406A1, “INHIBITORS OF TRANSCRIPTIONAL ENHANCED ASSOCIATE DOMAIN (TEAD) AND USES THEREOF” (Dana-Farber Cancer Institute, Inc., priority 2020, published 2024)
